Data as given in patent US10610515B2, “Composition including indoprofen and use thereof” (Samsung Electronics Co., Ltd., priority 2015, dated 2020).

Tests used:
mouse = conditions: cited from earlier work
C57BL/6 female mice [1] = experiment: SDH and NADPH staining of extensor digitorum longus muscle of indoprofen-administered mice; type: in vivo, mouse; conditions: oral, 2 weeks, 10 week-old mice
Method: 10 week-old C57BL/6 female mice were bred at a temperature of 22±2° C., humidity of 55±5%, and a light-dark cycle of 12:12 hours. Mice were orally administered 1.5 mg/kg of indoprofen in 100 μl of PBS twice a day. A control group was orally administered with 100 μl of PBS twice a day. The mice were allowed free access to drinking water. Skeletal muscles were separated from the mice fed with indoprofen for 2 weeks, and subjected to immunoblot analysis. Staining of succinic dehydrogenase (SDH) and NADPH in the extensor digitorum longus muscle of a mouse administered with indoprofen for 2 weeks was performed. This staining method is a method of analyzing mitochondrial activity by measuring activities of SDH and NADPH which are enzymes involved in the electron transport chain of mitochondria. Staining degree of SDH and NADPH represents a content of oxidative muscle fiber. Immediately after separation, extensor digitorum longus muscles were fixed in OCT compound and frozen using liquid nitrogen, and then sectioned to a thickness of 7 μm with a cryo-cut freezing microtome. After SDH staining, the frozen tissue sections were reacted in 0.2 M phosphate buffer (pH 7.4) containing SDH at 37° C. for 10 minutes, washed with distilled water, and then sealed, followed by observation. […]

C57BL/6 female mice [2] = experiment: Immunoblotting of tibialis anterior muscles of mice administered with indoprofen; type: in vivo, mouse; conditions: 1.5 mg/kg orally twice a day, 2 weeks, 10 week-old mice, vs PBS control (FIG. 3A)
Method: (§1) 10 week-old C57BL/6 female mice were bred at a temperature of 22±2° C., humidity of 55±5%, and a light-dark cycle of 12:12 hours. Mice were orally administered 1.5 mg/kg of indoprofen in 100 μl of PBS twice a day. A control group was orally administered with 100 μl of PBS twice a day. The mice were allowed free access to drinking water. Skeletal muscles were separated from the mice fed with indoprofen for 2 weeks, and subjected to immunoblot analysis.

25-month-old female mice [3] = experiment: SDH and NADPH staining of extensor digitorum longus muscle of indoprofen-administered old mice; type: in vivo, mouse; conditions: old (25-month-old) mice, oral in corn oil, 4 weeks
Method: Immediately after separation, extensor digitorum longus muscles were fixed in OCT compound and frozen using liquid nitrogen, and then sectioned to a thickness of 7 μm with a cryo-cut freezing microtome. After SDH staining, the frozen tissue sections were reacted in 0.2 M phosphate buffer (pH 7.4) containing SDH at 37° C. for 10 minutes, washed with distilled water, and then sealed, followed by observation. For NADPH staining, the frozen tissue sections were reacted in 3.5 mM phosphate buffer (pH 7.4) containing 0.9 mM NADH, and 1.5 mM nitro blue tetrazolium at 37° C. for 30 minutes, washed with distilled water, and then sealed, followed by observation.
25-month-old female mice (weighing 30 g) were orally administered with indoprofen mixed with corn oil as an experimental group or corn oil only as a control group for 4 weeks. […] Staining of SDH and NADPH in extensor digitorum longus muscles of the old mice orally administered with indoprofen for 4 weeks was performed in the same manner as in 4 of Example 3.

25-month-old female mice [4] = experiment: Weighing lower limb muscles of old mice administered with indoprofen; type: in vivo, mouse; conditions: old (25-month-old) mice, fed 4 weeks (FIG. 4C)
Description: To analyze changes in the muscle weight of old mouse by administration of indoprofen, lower limb muscles were separated from 25-month-old female mice (weighing 30 g) fed with indoprofen for 4 weeks.

C2C12 myoblasts [5] = experiment: Differentiation of indoprofen-treated myoblasts (MHC antibody fluorescence staining, DAPI); type: cell-based; conditions: 10 μM or 100 μM, differentiation 3 days, vs DMSO control (FIG. 2)
Method: C2C12 myoblasts were treated with 10 μM or 100 μM indoprofen and allowed to differentiate for 3 days. A control group was treated with DMSO alone. Fluorescence staining of C2C12 myotubes was performed using MHC antibody. The number of nuclei within one myotube was counted by DAPI staining. C2C12 cells were differentiated in DMED supplemented with 2% horse serum for 72 hours. The cells were washed with 1×PBS, and then fixed in 4% paraformaldehyde at room temperature for 15 minutes, followed by washing with 1×PBS three times. The cells were reacted with a permeabilizing buffer supplemented with 0.2% Triton-X for 10 minutes, and then washed with 1×PBS three times, followed by blocking using 5% fetal bovine serum at room temperature for 1 hour. A primary antibody, anti-MHC, was diluted with 5% goat serum at a ratio of 1:500 and allowed to react at 4° C. for 12 hours, followed by washing with 1×PBS three times. A secondary antibody, anti-mouse IgG-HRP 594 (Invitrogen) was diluted with 5% goat serum at a ratio of 1:500 and allowed to react at 4° C. for 1 hour, followed by washing with 1×PBS three times. DAPI is diluted with 1×PBS at a ratio of 1:10000 and allowed to react for 1 minute, followed by washing with 1×PBS and fluorescence microscopy.

C57BL/6 female mice [6] = experiment: Observation of lower limb muscles and heart of mice administered with indoprofen; type: in vivo, mouse; conditions: 1.5 mg/kg orally twice a day
Method: as §1, with “analysis. To evaluate functional consequence of PGC-1α increased by indoprofen treatment of skeletal muscle, lower limb muscles and organs of mice fed with indoprofen for 2 weeks were separated and analyzed.” for “analysis.”

C2C12 myoblasts [7] = experiment: Immunoblot of PGC-1α, differentiation markers and mitochondrial protein in indoprofen-treated myoblasts; type: cell-based
Method: The effect of indoprofen on the differentiation of C2C12 myoblasts into muscle cells was analyzed. Dulbecco's Modified Eagle Medium (DMEM) supplemented with 15% fetal bovine serum was used as a growth medium for the culture of C2C12 myoblasts, and DMEM supplemented with 2% horse serum was used as a differentiation medium for differentiation into muscle cells. To induce differentiation of C2C12 myoblasts into muscle cells, 10 μM or 100 μM indoprofen dissolved in DMSO was added to the experimental groups, and DMSO alone was added to the control group. The cells were cultured for 48 hours to induce differentiation, and then a RIPA buffer (50 mM Tris-HCl, pH 7.5, 150 mM NaCl, 1% Triton X100, 0.1% SDS, 2 mM EDTA, 0.5% sodium deoxycholate, Proteinase Inhibitor) was added to the harvested cells to allow lysis for 30 minutes, followed by centrifugation at 13,000 rpm for 30 minutes. The amount of protein in the cell lysis sample was quantified and an equal amount of protein was subjected to 7% or 15% SDS-PAGE. The protein was transferred onto a PVDF membrane, and then incubated in a blocking buffer containing 5% skim milk for 1 hour. Primary antibodies specific to individual proteins, diluted in 5% BSA, are reacted with the membrane at 4° C. for 12 hours, and then the membrane was washed with a wash buffer for 5 minutes three times. Secondary antibodies were diluted with the blocking buffer and allowed to react with the membrane at room temperature for 1 hour. Thereafter, the membrane was washed with the wash buffer for 5 minutes three times, and then exposed to X-ray film using an ECL reagent (Roche) to confirm protein expression levels.

C57BL/6 female mice [8] = experiment: Immunohistochemistry of 2a/2b type muscle fiber in extensor digitorum longus muscles of indoprofen-treated mice; type: in vivo, mouse; conditions: oral, 2 weeks
Method: 10 week-old C57BL/6 female mice were bred at a temperature of 22±2° C., humidity of 55±5%, and a light-dark cycle of 12:12 hours. Mice were orally administered 1.5 mg/kg of indoprofen in 100 μl of PBS twice a day. A control group was orally administered with 100 μl of PBS twice a day. The mice were allowed free access to drinking water. Skeletal muscles were separated from the mice fed with indoprofen for 2 weeks, and subjected to immunoblot analysis. To examine distribution of 2a type muscle fiber and 2b type muscle fiber, extensor digitorum longus muscles of mice administered with indoprofen for 2 weeks were subjected to immunohistochemistry. 2a type muscle fiber is an oxidative muscle fiber type, and there are two types: aerobic, that is, oxygen-dependent energy source and anaerobic, that is, oxygen-independent energy source. 2b type muscle fiber is a glycolytic muscle fiber type, and includes only anaerobic energy source. Frozen sections stored in a deep freezer of −80° C. were washed with 1×PBS twice, and fixed with 4% paraformaldehyde at room temperature for 15 minutes, and then washed with 1×PBS twice. The tissue and a permeabilization buffer (0.2% Triton-X/PBS) were reacted at room temperature for 30 minutes, and washed with 1×PBS twice. […] After sealing, a fluorescence microscope (Nikon, body: Ti-u, camera: DS-RI1, program: NIS-elements BR 3.1) was used for analysis.

human PGC-1α promoter = experiment: PGC-1α promoter luciferase reporter screening in C2C12-PGC-1α reporter cell line; type: cell-based, mouse; conditions: 10 μM, 48 hours, C2C12-PGC-1α reporter cells, vs DMSO control
Method: To screen a compound activating PGC-1α gene expression in C2C12 myoblast cells, a PGC-1α reporter-expressing C2C12 cell line (hereinafter, referred to as ‘PGC-1α reporter cell line’ or ‘C2C12-PGC-1α cell line) was established. A vector expressing luciferase and dscGFP (destabilized Green Fluorescent Protein) under a human PGC-1α promoter having a length of 1 kb was prepared, and this vector was inserted into lentivirus to transfect C2C12 cells. To select a cell line that genetically stably expressed the vector, fluorescence emitted from green fluorescent protein (GFP) included in the vector was monitored. 5 μg/ml of puromycin, a selection marker for the vector, was added to a cell culture medium, and a cell line expressing PGC-1α reporter was selected. […] The expression level is measured by luminescence after addition of a luciferase substrate, thereby determining activation or inhibition of PGC-1α transcription by the compound.
The C2C12-PGC-1α reporter cell line prepared in Section 1 was used to screen a PGC-1α expression regulator from 2320 compounds provided by Korea Chemical Bank. […] 48 hours later, luminescence by luciferase was measured. […] Then, luminescence is measured. The measured values were normalized to each well and plate, and a value measured in a well treated with a solvent of the compound, DMSO, is used as a control group to express the value as a relative ratio.

[9] = 10 μM or 100 μM, 48 hours differentiation, Western blot, vs DMSO control (FIG. 1)

For `CC(=O)Oc1ccccc1C(=O)O` [aspirin], the ID50 (mouse; for reference) is given as 250 mg/kg.
For `CC(C(=O)O)c1ccc(N2Cc3ccccc3C2=O)cc1` (stereo not shown) [indoprofen, 2-[4-(1-oxo-1,3-dihydro-2H-isoindol-2-yl)phenyl]propionic acid], the “percentage of muscle fiber having increased SDH activity in extensor digitorum longus muscle” value (C57BL/6 female mice [1]; vs control group (FIG. 3E)) was “increased”, the “percentage of muscle fiber having increased NADPH activity in extensor digitorum longus muscle” value (C57BL/6 female mice [1]; vs control group (FIG. 3F)) was “increased” and the “expression of PGC-1α in tibialis anterior muscle” value (C57BL/6 female mice [2]) was “increased”. The “expression of myoglobin in tibialis anterior muscle” value (C57BL/6 female mice [2]) was “increased”, the “percentage of muscle fiber having increased SDH activity in extensor digitorum longus muscle” value (25-month-old female mice [3]; vs corn oil control (FIG. 4A)) was “increased” and the “percentage of muscle fiber having increased NADPH activity in extensor digitorum longus muscle” value (25-month-old female mice [3]; vs corn oil control (FIG. 4B)) was “increased”. The “weight of lower limb muscle (Sol, Gas, EDL, TA)” value (25-month-old female mice [4]) was “increases”, the “myotube formation and fusion of myoblasts” value (C2C12 myoblasts [5]) was “increased” and the “percentage of the nuclei labeled with MHC antibody” value (C2C12 myoblasts [5]) was “significantly increased”. The heart size (C57BL/6 female mice [6]; 2 weeks (FIG. 3B (C))) was “no change”, the “appearance of quadriceps muscle and gastrocnemius muscle (white vs red muscle)” value (C57BL/6 female mice [6]; 2 weeks, vs control group (FIG. 3B)) was “converted to red muscles” and the “expression of PGC-1α” value (C2C12 myoblasts [7]; [9]) was “greatly increased”. For the same compound, the “expression of mitochondrial protein cytochrome C” value (C2C12 myoblasts [7]; [9]) was “greatly increased”, the “expression of muscle differentiation marker MHC” value (C2C12 myoblasts [7]; [9]) was “greatly increased” and the “expression of muscle differentiation marker myogenin” value (C2C12 myoblasts [7]; [9]) was “greatly increased”. For the same compound, the expression of myoglobin (C2C12 myoblasts [7]; [9]) was “greatly increased”, the “concentration of optimal activity” value (C2C12 myoblasts [7]; C2C12 myoblasts, protein expression (FIG. 1)) was 100 µM and the “number of oxidative 2a type muscle fiber in extensor digitorum longus muscle” value (C57BL/6 female mice [8]; anti-Myh2a antibody, vs non-treated control (FIG. 3C)) was “increased”. The “number of glycolytic 2b type muscle fiber in extensor digitorum longus muscle” value (C57BL/6 female mice [8]; anti-Myh2b antibody, vs non-treated control (FIG. 3D)) was “decreased”, the “lethal dose (LD)-50 for 50% mouse mortality” value (mouse; mouse) was 700 mg per mouse body weight (kg) and the “PGC-1α promoter activity (luciferase luminescence, relative ratio to DMSO control)” value (human PGC-1α promoter) was “greatly increased”.
